Read-outs that look alike come from different tables or passages of the source.
Tests used:
[1] = assay type: in vivo, male NMRI mice; conditions: ED50 p.o. / ED50 s.c.
Procedure: (§1) […]. They were given a standard feed and water ad libitum up to the commencement of the experiments.
(§2) The test compounds were administered in a volume of 10 ml./kg./body weight per mouse. As carrier, there was used physiological sodium chloride solution or a suspension of 0.5% tragacanth in physiological sodium chloride solution.
(§3) The experimental results are given as average values with a mean error of the average value (x±S.E.M.). The ED50 values were calculated according to Litchfield and Wilcoxon (J. Pharmacol. Exp. Ther., 96, 99/1949). The compounds were thereby tested in 4 dosages (p≤0.5).
(§4) For the significance calculation, there was used Student's t test (see Angewandte Statistik, pub. Stringer Verlag, Berlin, Heidelberg, 242/1983), as well as the range sum test of Mann and Withney (Ann. Math. stat., 50, 1818/1947).
(§5) 1.1. In the acetic acid writhing test (see R. Koster et al., Fed. proc., 18, 412/1954), the typical stretching movements referred to as "writhing", were produced by the intraperitoneal administration of a 0.6% acetic acid solution. 30 minutes previously, the substance to be tested was administered subcutaneously (s.c.) or orally ([…].) to the animals. 3 minutes after administration of the acetic acid solution, the total number of stretching movements in a period of time of 10 minutes was ascertained. From the decrease of the stretching reactions due to the action of the test compound in comparison with non-pretreated control groups, there was determined the percentage inhibition action.

[2] = assay type: in vivo, male NMRI mice; conditions: for % inhibition action ± SEM with naloxone: with naloxone hydrochloride 20 mg./kg. s.c.; for change in % (with vs without naloxone): given without sign
Procedure: They were given a standard feed and water ad libitum up to the commencement of the experiments.
as §2, §3, §4, §5
Naloxone-antagonistic action in the writhing test.
20 Minutes before the subcutaneous administration of the test compounds, the animals were given 20 mg./kg. naloxone hydrochloride subcutaneously. The further carrying out of the experiments was as described above.

[3] = assay type: in vivo, male NMRI mice; conditions: s.c. increasing dosages over 2 days, naloxone i.p.; for % of reacting animals: 10 minutes
Procedure: as §1, §2
2. Development of dependency.
Withdrawal jumps of the mouse (see J. K. Saelens et al., Arch. Int. Pharmacodyn. Ther., 190, 213/1971).
Mice which were dependent upon morphine or other opiates react, when treated with morphine antagonists, with a flight reaction (see F. Huidobro and C. Maggiolo, Arch. Int. Pharmacodyn. Ther., 158, 97/1965); E. L. Way et al., Science, 162, 1290/1968). This flight reaction manifests itself in very vigorous jumping reactions which continue for about 10 minutes. From the number of reacting animals and especially from the jump frequency per animal, there can be deduced the strength of the withdrawal symptoms and thus the degree of dependency upon the test compound. Carrying out of the test:
The test and standard compounds were administered subcutaneously according to the scheme shown in the following Table III in increasing dosages over the course of 2 days.
For the provocation of the withdrawal jumps, the animals received intraperitoneally, 2 hours after the last compound administration, 30 mg./kg. naloxone hydrochloride.
Immediately after the administration of the naloxone, the animals were placed individually in a 5 liter glass beaker. Subsequently, the number of jump movements was recorded during the course of 10 minutes. For evaluation, the number of animals reacting the withdrawal jumps, as well as the average number of jumps per animal, was used.
The animals of the naloxone control group were, up to the administration of naloxone, treated with a 0.9% aqueous solution of sodium chloride (6 animals/dosage group).

[4] = influencing of the amphetamine group toxicity; assay type: in vivo, male NMRI mice
Procedure: as §1, §2
3. Influencing of the amphetamine group toxicity.
There was investigated the influence of the test compounds on the mortality of amphetamine-treated, aggregated mice. The dosaging of d-amphetamine was 15 mg./kg., which should permit the recognition not only of a synergism but also of an antagonism towards a sympathomimetic compound. Carrying out the experiment:
30 minutes after the subcutaneous administration of the test substance, the animals received subcutaneously 15 mg./kg. of d-amphetamine sulphate. The number of dead animals was recorded after 2, 4 and 7 hours. For the maintenance of the group size, the dead animals were replaced by untreated animals (6 animals/dosage group).

[5] = testing for ataxia (rotating rod test); assay type: in vivo, male NMRI mice
Procedure: (§6) For the pharmacological investigations described in the following, there were used male NMRI mice with a weight of from 15 to 30 g. The animals were kept under usual laboratory conditions, randomised and subjected to a light-dark change with a 12 hour rhythm. They were given a standard feed and water ad libitum up to the commencement of the experiments.
as §2
There was used the rotating rod test (see F. Gross et al., Schweiz. Med. Wschr., 85, 305/1955).
5 animals per dosage group were trained to keep themselves on a horizontally rotating rod made of synthetic resin (16 rpm). 40, 80 and 120 minutes after the subcutaneous administration of the test compounds, the animals were again tested. From the number of animals which fell off prematurely, there was determined the disturbance of the movement coordination.

[6] = tonus reduction on striated musculature; assay type: in vivo, male NMRI mice
Procedure: as §6, §2
6. Tonus reduction on striated musculature.
The test used is described by J. P. Chambon et al. (Arzneimittelforschung (Drug Research), 35 (II), (10), 1572/1985).
5 animals per dosage group were placed with their front paws on a horizontal metal rod (diameter 3 mm., length 20 cm.) which was fixed 30 cm. above a laboratory bench. Mice with normal muscle tonus climbed within 5 seconds on to the rod with at least one rear paw.
40, 80 and 120 minutes after the subcutaneous administration of the test compound, the animals were again tested for this ability and the number of incapable animals was recorded.

[7] = 25 mg/kg s.c. + d-amphetamine sulphate 15 mg./kg. s.c.
[8] = 50 mg/kg s.c. + d-amphetamine sulphate 15 mg./kg. s.c.

| Compound | quotient p.o./s.c. (of ED50) [1] | % inhibition action ± SEM with naloxone ([2]; 12.5 mg/kg s.c.) | % inhibition action ± SEM without naloxone ([2]; 12.5 mg/kg s.c.) | change in % (with vs without naloxone) ([2]; 12.5 mg/kg s.c.) | % inhibition action ± SEM with naloxone ([2]; 25 mg/kg s.c.) | % inhibition action ± SEM without naloxone ([2]; 25 mg/kg s.c.) | change in % (with vs without naloxone) ([2]; 25 mg/kg s.c.) | % inhibition action ± SEM with naloxone ([2]; 50 mg/kg s.c.) | % inhibition action ± SEM without naloxone ([2]; 50 mg/kg s.c.) | change in % (with vs without naloxone) ([2]; 50 mg/kg s.c.) | average number of jumps/animal/10 minutes [3] | % of reacting animals [3] | % of deceased animals after 2 hrs. [4, 7] | % of deceased animals after 4 hrs. [4, 7] | % of deceased animals after 7 hrs. [4, 7] | % of deceased animals, total [4, 7] | % of deceased animals after 2 hrs. [4, 8] | % of deceased animals after 4 hrs. [4, 8] | % of deceased animals after 7 hrs. [4, 8] | % of deceased animals, total [4, 8] | also measured |
| --- | --- | --- | --- | --- | --- | --- | --- | --- | --- | --- | --- | --- | --- | --- | --- | --- | --- | --- | --- | --- | --- |
| CC12CCNCC(C1)c1ccccc1O2 (centres unmarked) [Example 6, 2,3,4,5,6,7-hexahydro-2-methyl-2,7-methano-1,5-benzoxazonine] | 1.65 | 39.7 ± 10.4% | 33.2 ± 3.2% | 6.5% | 65.5 ± 6.5% | 58.9 ± 10.1% | 6.6% | 91.8 ± 3.3% | 84.6 ± 7.7% | 7.2% | 0 | 0% | 0% | 0% | 16.7% | 16.7% | 0% | 16.7% | 0% | 16.7% | change of the maintenance time in % compared with the control group, after 40 min. ([5]; 25 mg/kg s.c.): 0%; change of the maintenance time in % compared with the control group, after 80 min. ([5]; 25 mg/kg s.c.): -8%; change of the maintenance time in % compared with the control group, after 120 min. ([5]; 25 mg/kg s.c.): 0%; change of the maintenance time in % compared with the control group, after 40 min. ([5]; 50 mg/kg s.c.): -17%; change of the maintenance time in % compared with the control group, after 80 min. ([5]; 50 mg/kg s.c.): 0%; change of the maintenance time in % compared with the control group, after 120 min. ([5]; 50 mg/kg s.c.): -8%; muscle-relaxing action ([6]; 25 mg./kg. s.c.): 13%; muscle-relaxing action ([6]; 50 mg./kg. s.c.): 20% |
| CC1NCCC2(C)CC1c1ccccc1O2 (centres unmarked) [Example 9, 2,3,4,5,6,7-hexahydro-2,6-dimethyl-2,7-methano-1,5-benzoxazonine] | 1.45 | 52.0 ± 1.5% | 57.0 ± 7.6% | 5.0% | 80.1 ± 6.8% | 64.0 ± 5.0% | 16.1% | 88.4 ± 11.6% | 84.9 ± 2.7% | 3.5% | 0 | 0% | 16.7% | 0% | 0% | 16.7% | 0% | 0% | 33.3% | 33.3% | change of the maintenance time in % compared with the control group, after 40 min. ([5]; 25 mg/kg s.c.): -13%; change of the maintenance time in % compared with the control group, after 80 min. ([5]; 25 mg/kg s.c.): -17%; change of the maintenance time in % compared with the control group, after 120 min. ([5]; 25 mg/kg s.c.): -12%; change of the maintenance time in % compared with the control group, after 40 min. ([5]; 50 mg/kg s.c.): 0%; change of the maintenance time in % compared with the control group, after 80 min. ([5]; 50 mg/kg s.c.): 0%; change of the maintenance time in % compared with the control group, after 120 min. ([5]; 50 mg/kg s.c.): -2%; muscle-relaxing action ([6]; 25 mg./kg. s.c.): 13%; muscle-relaxing action ([6]; 50 mg./kg. s.c.): 20% |

Source: US4859664A, “Derivatives of 2,3,4,5,6,7-hexahydro-2,7-methano-1,5-benzoxazonines and -1,4-benzoxazonines, processes for their production and their use as pharmaceuticals” (priority 1986, dated 1989)
